Experimental data reported in PMC11002980 (RSC Advances, 2024).

Assays:
[1] = test system: MCF-7 breast cancer cells; experiment: MTT cytotoxicity assay on MCF-7 cells; assay type: cell-based; conditions: Homo sapiens, MCF7, read-out: MCF-7 (IC50)
[2] = target: EGFR^wt kinase (Homo sapiens, UniProt P00533); experiment: EGFR^wt kinase inhibition assay; assay type: biochemical
Sequence of EGFR^wt kinase (P00533 25-1210): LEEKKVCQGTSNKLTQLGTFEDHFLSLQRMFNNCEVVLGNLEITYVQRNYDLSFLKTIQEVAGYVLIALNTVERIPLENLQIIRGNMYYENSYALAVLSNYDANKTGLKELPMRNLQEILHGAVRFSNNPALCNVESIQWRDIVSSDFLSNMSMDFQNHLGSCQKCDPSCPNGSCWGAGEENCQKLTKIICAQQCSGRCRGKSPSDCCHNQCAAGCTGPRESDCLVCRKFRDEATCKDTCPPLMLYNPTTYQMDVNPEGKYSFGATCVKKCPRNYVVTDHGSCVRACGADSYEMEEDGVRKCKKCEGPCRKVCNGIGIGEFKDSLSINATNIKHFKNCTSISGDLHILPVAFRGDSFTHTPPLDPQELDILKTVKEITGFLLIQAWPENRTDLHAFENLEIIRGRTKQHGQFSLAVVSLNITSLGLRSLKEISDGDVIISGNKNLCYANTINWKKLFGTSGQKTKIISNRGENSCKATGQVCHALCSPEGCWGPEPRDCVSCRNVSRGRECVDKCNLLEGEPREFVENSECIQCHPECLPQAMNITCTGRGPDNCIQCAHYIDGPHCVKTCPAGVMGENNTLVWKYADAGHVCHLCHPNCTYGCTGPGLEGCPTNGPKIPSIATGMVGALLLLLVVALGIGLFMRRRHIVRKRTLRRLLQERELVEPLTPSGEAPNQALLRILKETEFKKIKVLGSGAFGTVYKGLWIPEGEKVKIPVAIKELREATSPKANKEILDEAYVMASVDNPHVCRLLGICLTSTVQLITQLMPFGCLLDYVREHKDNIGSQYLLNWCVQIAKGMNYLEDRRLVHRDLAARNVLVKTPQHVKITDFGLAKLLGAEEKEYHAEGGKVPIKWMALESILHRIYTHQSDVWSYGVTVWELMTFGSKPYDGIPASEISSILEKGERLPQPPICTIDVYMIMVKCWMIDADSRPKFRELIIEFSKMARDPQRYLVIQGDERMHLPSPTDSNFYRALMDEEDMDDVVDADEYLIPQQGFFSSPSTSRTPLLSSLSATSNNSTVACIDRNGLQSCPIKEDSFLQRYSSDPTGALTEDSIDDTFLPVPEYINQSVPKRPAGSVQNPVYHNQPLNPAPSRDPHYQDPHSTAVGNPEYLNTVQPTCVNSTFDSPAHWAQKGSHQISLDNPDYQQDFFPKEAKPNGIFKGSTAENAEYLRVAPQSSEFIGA

IC50 [2] | Compound | IC50 [1]
– | COc1ccc(NC(=O)C2=C(C)NC(C)=C(C(=O)Nc3ccc(OC)cc3OC)C2c2ccccc2)c(OC)c1 [HD-1, N ^3,N^5-Bis(2,4-dimethoxyphenyl)-2,6-dimethyl-4-phenyl-1,4-dihydropyridine-3,5-dicarboxamide] | 66.5 µM
– | COc1ccc(NC(=O)C2=C(C)NC(C)=C(C(=O)Nc3ccc(OC)cc3OC)C2c2ccc(Cl)cc2)c(OC)c1 [HD-2, 4-(4-Chlorophenyl)-N^3,N^5-bis(2,4-dimethoxyphenyl)-2,6-dimethyl-1,4-dihydropyridine-3,5-dicarboxamide] | 51.4 µM
– | COc1ccc(NC(=O)C2=C(C)NC(C)=C(C(=O)Nc3ccc(OC)cc3OC)C2c2cccc(Cl)c2)c(OC)c1 [HD-3, 4-(3-Chlorophenyl)-N^3,N^5-bis(2,4-dimethoxyphenyl)-2,6-dimethyl-1,4-dihydropyridine-3,5-dicarboxamide] | 59.4 µM
– | COc1ccc(NC(=O)C2=C(C)NC(C)=C(C(=O)Nc3ccc(OC)cc3OC)C2c2ccco2)c(OC)c1 [HD-4, N ^3,N^5-Bis(2,4-dimethoxyphenyl)-4-(furan-2-yl)-2,6-dimethyl-1,4-dihydropyridine-3,5-dicarboxamide] | 36 µM
– | COc1ccc(NC(=O)C2=C(C)NC(C)=C(C(=O)Nc3ccc(OC)cc3OC)C2c2ccc(O)cc2)c(OC)c1 [HD-5, N ^3,N^5-Bis(2,4-dimethoxyphenyl)-4-(4-hydroxyphenyl)-2,6-dimethyl-1,4-dihydropyridine-3,5-dicarboxamide] | 62.1 µM
0.0305 ± 0.00148 µM | COc1cc(NC(=O)C2=C(C)NC(C)=C(C(=O)Nc3cc(OC)c(Cl)cc3OC)C2c2ccccc2)c(OC)cc1Cl [HD-6, N ^3,N^5-Bis(4-chloro-2,5-dimethoxyphenyl)-2,6-dimethyl-4-phenyl-1,4-dihydropyridine-3,5-dicarboxamide] | 21.3 µM
0.0265 ± 0.00142 µM | COc1cc(NC(=O)C2=C(C)NC(C)=C(C(=O)Nc3cc(OC)c(Cl)cc3OC)C2c2ccc(Cl)cc2)c(OC)cc1Cl [HD-7, N ^3,N^5-Bis(4-chloro-2,5-dimethoxyphenyl)-4-(4-chlorophenyl)-2,6-dimethyl-1,4-dihydropyridine-3,5-dicarboxamide] | 16.8 µM
0.0159 ± 0.0012 µM | COc1cc(NC(=O)C2=C(C)NC(C)=C(C(=O)Nc3cc(OC)c(Cl)cc3OC)C2c2cccc(Cl)c2)c(OC)cc1Cl [HD-8, N ^3,N^5-Bis(4-chloro-2,5-dimethoxyphenyl)-4-(3-chlorophenyl)-2,6-dimethyl-1,4-dihydropyridine-3,5-dicarboxamide] | 18.3 µM
– | COc1cc(NC(=O)C2=C(C)NC(C)=C(C(=O)Nc3cc(OC)c(Cl)cc3OC)C2c2ccco2)c(OC)cc1Cl [HD-9, N ^3,N^5-Bis(4-chloro-2,5-dimethoxyphenyl)-4-(furan-2-yl)-2,6-dimethyl-1,4-dihydropyridine-3,5-dicarboxamide] | 57.7 µM
– | COc1cc(NC(=O)C2=C(C)NC(C)=C(C(=O)Nc3cc(OC)c(Cl)cc3OC)C2c2ccc(O)cc2)c(OC)cc1Cl [HD-10, N ^3,N^5-Bis(4-chloro-2,5-dimethoxyphenyl)-4-(4-hydroxyphenyl)-2,6-dimethyl-1,4-dihydropyridine-3,5-dicarboxamide] | 39.6 µM
– | COc1ccc(NC(=O)C2=C(C)NC(C)=C(C(=O)Nc3cc(OC)c(Cl)cc3OC)C2c2ccccc2)c(OC)c1 (stereo not shown) [HD-11, N ^3-(4-Chloro-2,5-dimethoxyphenyl)-N^5-(2,4-dimethoxyphenyl)-2,6-dimethyl-4-phenyl-1,4-dihydropyridine-3,5-dicarboxamide] | 42.4 µM
– | COc1ccc(NC(=O)C2=C(C)NC(C)=C(C(=O)Nc3cc(OC)c(Cl)cc3OC)C2c2ccc(Cl)cc2)c(OC)c1 (stereo not shown) [HD-12, N ^3-(4-Chloro-2,5-dimethoxyphenyl)-4-(4-chlorophenyl)-N^5-(2,4-dimethoxyphenyl)-2,6-dimethyl-1,4-dihydropyridine-3,5-dicarboxamide] | 37.5 µM
– | COc1ccc(NC(=O)C2=C(C)NC(C)=C(C(=O)Nc3cc(OC)c(Cl)cc3OC)C2c2cccc(Cl)c2)c(OC)c1 (stereo not shown) [HD-13, N ^3-(4-Chloro-2,5-dimethoxyphenyl)-4-(3-chlorophenyl)-N^5-(2,4-dimethoxyphenyl)-2,6-dimethyl-1,4-dihydropyridine-3,5-dicarboxamide] | 44.1 µM
– | COc1ccc(NC(=O)C2=C(C)NC(C)=C(C(=O)Nc3cc(OC)c(Cl)cc3OC)C2c2ccco2)c(OC)c1 (stereo not shown) [HD-14, N ^3-(4-Chloro-2,5-dimethoxyphenyl)-N^5-(2,4-dimethoxyphenyl)-4-(furan-2-yl)-2,6-dimethyl-1,4-dihydropyridine-3,5-dicarboxamide] | 52.3 µM
– | COc1ccc(NC(=O)C2=C(C)NC(C)=C(C(=O)Nc3cc(OC)c(Cl)cc3OC)C2c2ccc(O)cc2)c(OC)c1 (stereo not shown) [HD-15, N ^3-(4-Chloro-2,5-dimethoxyphenyl)-N^5-(2,4-dimethoxyphenyl)-4-(4-hydroxyphenyl)-2,6-dimethyl-1,4-dihydropyridine-3,5-dicarboxamide] | 42.2 µM
– | CS(=O)(=O)CCNCc1ccc(-c2ccc3ncnc(Nc4ccc(OCc5cccc(F)c5)c(Cl)c4)c3c2)o1 [Lapatinib, reference compound] | 2.02 µM
